From patent US20070043011A1, “Substituted benzanilide compound and noxious organism controlling agent” (priority 2003, published 2007)
Read-outs that look alike come from different tables or passages of the source.

Key:
Type in all cases: in vivo
[1] = tested on: diamondback moths (Plutella xylostella); test: Insecticidal test against diamondback moth (leaf dip); conditions: foliar, 144 h, read-out: insecticidal rate (rate of dead insects)
Protocol: (§1) A 10% emulsifiable concentrate (depending on the compounds, 25% wettable powder was applied for the test) of the compound of the present invention was diluted with water containing a spreading agent to prepare a chemical solution with a concentration of 100 ppm. To the chemical solution was dipped leaves of Chinese olive for about 10 seconds, and after air-drying, they were placed in a laboratory dish, then, 10 diamondback moths (Plutella xylostella) with second instar larvae per the dish were released therein, and the dish was covered with a lid having holes and contained at a thermostat chamber at 25° C. A number of dead insect(s) after 6 days was counted and a rate of dead insects was calculated in the same manner as in Test Example 1. Incidentally, the test was carried out with two districts.

[2] = tested on: Common cutworms (Spodoptera litura); test: Insecticidal test against common cutworm (leaf dip); conditions: foliar, 144 h, read-out: insecticidal rate (rate of dead insects)
Protocol: as §1, with “10 Common cutworms (Spodoptera litura)” for “10 diamondback moths (Plutella xylostella)”, “calculated by” for “calculated in”, “the following calculation formula.” for “the same manner as in Test Example 1.”, “districts. Rate of dead insects (%)=(Number of dead insects/Number of released insects)×100” for “districts.”

[3] = tested on: Common cutworm (Spodoptera litura); test: Insecticidal test (comparative test) against common cutworm, third instar larvae; conditions: leaf dip, counted after 6 days
Protocol: 10% emulsifiable concentrates of the compound of the present invention and comparative compound were diluted with water containing a spreading agent to prepare chemical solutions with a predetermined concentration. To the chemical solutions was dipped leaves of Chinese olive for about 10 seconds, and after air-drying, they were placed in a laboratory dish, then, 7 Common cutworm (Spodoptera litura) with third instar larvae per the dish were released therein, and the dish was covered with a lid having holes and contained at a thermostat chamber at 25° C. Artificial feed (1 cm^3) was added after 2 days, a number of dead insect(s) was counted after 6 days and a rate of dead insects was calculated by the following calculation formula. Incidentally, the test was carried out with two districts. Rate of dead insects (%)=(Number of dead insects/Number of released insects)×100

[4] = 100 ppm, leaf dip, second instar larvae, after 6 days, 25° C.

Compound	pest or weed control at 100 ppm [1]	pest or weed control at 100 ppm [2]	Rate of dead insects ([3]; concentration 33 ppm)	pest or weed control at 100 ppm [1, 4]	pest or weed control at 100 ppm [2, 4]	further results
Cc1cc(C(O)(c2ccc3c(c2)OC(F)(F)C(F)(F)O3)C(F)(F)F)ccc1NC(=O)c1cccc(I)c1C(=O)NC(C)C (stereo not shown) [1-028, N^1-[4-[2,2,2-trifluoro-1-hydroxy-1-(2,2,3,3-tetrafluoro-1,4-dioxa-2,3-dihydronaphthalen-6-yl)ethyl]-2-methylphenyl]-3-iodo-N^2-isopropylphthalic diamide]	100%	≥ 80%				
CSCC(C)NC(=O)c1c(I)cccc1C(=O)Nc1ccc(C(O)(c2ccc(Cl)cc2)C(F)(F)F)cc1C (stereo not shown) [1-036]			100%			Rate of dead insects ([3]; concentration 0.1 ppm): 14.3%; Rate of dead insects ([3]; concentration 0.3 ppm): 28.6%; Rate of dead insects ([3]; concentration 1 ppm): 85.7%; Rate of dead insects ([3]; concentration 3 ppm): 100%; Rate of dead insects ([3]; concentration 10 ppm): 100%
CSCC(C)(C)NC(=O)c1c(I)cccc1C(=O)Nc1ccc(C(O)(c2ccc(Cl)cc2)C(F)(F)F)cc1C (stereo not shown) [1-084]			100%			Rate of dead insects ([3]; concentration 0.3 ppm): 0%; Rate of dead insects ([3]; concentration 1 ppm): 21.3%; Rate of dead insects ([3]; concentration 3 ppm): 71.4%; Rate of dead insects ([3]; concentration 10 ppm): 100%
Cc1cc(C(O)(c2ccc(Cl)cc2)C(F)(F)F)ccc1NC(=O)c1cccc(I)c1C(=O)NC(C)(C)CS(C)(=O)=O (stereo not shown) [1-087]			100%			Rate of dead insects ([3]; concentration 0.1 ppm): 0%; Rate of dead insects ([3]; concentration 0.3 ppm): 21.3%; Rate of dead insects ([3]; concentration 1 ppm): 71.4%; Rate of dead insects ([3]; concentration 3 ppm): 100%; Rate of dead insects ([3]; concentration 10 ppm): 100%
CSCC(C)(C)NC(=O)c1c(I)cccc1C(=O)Nc1ccc(C(O)c2ccc(Cl)cc2)cc1C (stereo not shown) [Comparative compound A, reference compound]			0%			
Cc1cc(C(O)(c2ccc(OC(F)(F)F)cc2)C(F)(F)F)ccc1NC(=O)c1cccc(I)c1C(=O)NC(C)C (stereo not shown) [Compound No. 1-009, N^1-[4-[2,2,2-trifluoro-1-hydroxy-1-(4-trifluoromethoxyphenyl)ethyl]-2-methylphenyl]-3-iodo-N^2-isopropylphthalic diamide]	100%	≥ 80%				
Cc1cc(C(O)(c2ccc(OS(C)(=O)=O)cc2)C(F)(F)F)ccc1NC(=O)c1cccc(I)c1C(=O)NC(C)C (stereo not shown) [Compound No. 1-015, N^1-[4-[2,2,2-trifluoro-1-hydroxy-1-(4-methanesulfonyloxyphenyl)ethyl]-2-methylphenyl]-3-iodo-N^2-isopropylphthalic diamide]	100%	≥ 80%				
Cc1cc(C(O)(COc2ccc(Cl)cc2)C(F)(F)F)ccc1NC(=O)c1cccc(I)c1C(=O)NC(C)C (stereo not shown) [Compound No. 2-004, N^1-[4-[2-(4-chlorophenoxy)-1-hydroxy-1-trifluoromethylethyl]-2-methylphenyl]-3-iodo-N^2-isopropylphthalic diamide]				100%	≥ 80%	
Cc1cc(C(O)(C(F)(F)F)C(F)(F)Oc2ccc(Cl)cc2)ccc1NC(=O)c1cccc(I)c1C(=O)NC(C)C (stereo not shown) [Compound No. 2-008, N^1-[4-[2-(4-chlorophenoxy)-2,2-difluoro-1-hydroxy-1-trifluoromethylethyl]-2-methylphenyl]-3-iodo-N^2-isopropylphthalic diamide]				100%	≥ 80%	
Cc1cc(C(O)(C=Cc2ccc(Cl)cc2)C(F)(F)F)ccc1NC(=O)c1cccc(I)c1C(=O)NC(C)C (stereo not shown) [Compound No. 2-018, N^1-[4-[3-(4-chlorophenyl)-1-hydroxy-1-trifluoromethyl-2-propenyl]-2-methylphenyl]-3-iodo-N^2-isopropylphthalic diamide]				100%	≥ 80%	
COC(c1ccc(Cl)cc1)(c1ccc(NC(=O)c2cccc(I)c2C(=O)NC(C)C)c(C)c1)C(F)(F)F (stereo not shown) [Compound No. 3-002, N^1-[4-[1-(4-chlorophenyl)-2,2,2-trifluoro-1-methoxyethyl]-2-methylphenyl]-3-iodo-N^2-isopropylphthalic diamide]	100%	≥ 80%				
Cc1cc2c(cc1NC(=O)c1cccc(I)c1C(=O)NC(C)C)OC(F)(F)C2(O)C(F)(F)F (stereo not shown) [Compound No. 4-002, N^1-(2,2-difluoro-3-hydroxy-5-methyl-3-trifluoromethyl-2,3-dihydrobenzofuran-6-yl)-3-iodo-N^2-isopropylphthalic diamide]				100%	≥ 80%	
